Source: ChEMBL document CHEMBL1201862, “PubChem BioAssay data set” (2004)
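Five compound concentrations were applied to cells in 96-well plates for 48 hours; endpoints were derived by simple linear interpolation of the resulting dose-response curve. GI50: concentration for 50% inhibition of growth.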 Active and inactive are the calls of the source. No stated cut-off is given here; in the data, active = GI50 up to about 1.1 µM and inactive = higher.

Tests used:
Assay in all cases: NCI-60 cell line screen, 48 h
EKVX = tested on: EKVX
HOP-62 = tested on: HOP-62
KM12 = tested on: KM12
MDA-MB-435 = tested on: MDA-MB-435
MOLT-4 = tested on: MOLT-4
NCI-H226 = tested on: NCI-H226
NCI-H23 = tested on: NCI-H23
NCI-H460 = tested on: NCI-H460
NCI-H522 = tested on: NCI-H522
OVCAR-3 = tested on: OVCAR-3
OVCAR-4 = tested on: OVCAR-4
OVCAR-5 = tested on: OVCAR-5
PC-3 = tested on: PC-3
RXF 393 = tested on: RXF 393
SF-295 = tested on: SF-295
SK-MEL-5 = tested on: SK-MEL-5
SNB-75 = tested on: SNB-75
SW-620 = tested on: SW-620
TK-10 = tested on: TK-10
UACC-257 = tested on: UACC-257

| Compound | GI50 (EKVX) | GI50 (HOP-62) | GI50 (KM12) | GI50 (MDA-MB-435) | GI50 (MOLT-4) | GI50 (NCI-H226) | GI50 (NCI-H23) | GI50 (NCI-H460) | GI50 (NCI-H522) | GI50 (OVCAR-3) | GI50 (OVCAR-4) | GI50 (OVCAR-5) | GI50 (PC-3) | GI50 (RXF 393) | GI50 (SF-295) | GI50 (SK-MEL-5) | GI50 (SNB-75) | GI50 (SW-620) | GI50 (TK-10) | GI50 (UACC-257) |
| --- | --- | --- | --- | --- | --- | --- | --- | --- | --- | --- | --- | --- | --- | --- | --- | --- | --- | --- | --- | --- |
| CCOC(=O)NC(C(C(=O)OCC)C(=O)OCC)(C(F)(F)F)C(F)(F)F | > 100 µM (inactive) | > 100 µM (inactive) | > 100 µM (inactive) | > 100 µM (inactive) | > 100 µM (inactive) | > 100 µM (inactive) | > 100 µM (inactive) | > 100 µM (inactive) | > 100 µM (inactive) | > 100 µM (inactive) | > 100 µM (inactive) | > 100 µM (inactive) | > 100 µM (inactive) | > 100 µM (inactive) | > 100 µM (inactive) | > 100 µM (inactive) | > 100 µM (inactive) | > 100 µM (inactive) | > 100 µM (inactive) | > 100 µM (inactive) |
| O=C(O)C(Cc1cc(I)c(O)c(I)c1)C1CCCCC1 (stereo unspecified) | 31.9 µM (inactive) | 24.5 µM (inactive) | 30.4 µM (inactive) | 60.8 µM (inactive) | 28.4 µM (inactive) | 61.5 µM (inactive) | 24 µM (inactive) | 18.1 µM (inactive) | 29.3 µM (inactive) | 15.6 µM (inactive) | 59.6 µM (inactive) | 49.2 µM (inactive) | 18.3 µM (inactive) | 34.2 µM (inactive) | 35.6 µM (inactive) | 22.4 µM (inactive) | 37.6 µM (inactive) | 58.9 µM (inactive) | 24 µM (inactive) | 45.3 µM (inactive) |
| O=c1[nH]c2ccccc2c(=O)c2cc3ccccc3cc12 | > 100 µM (inactive) | 10.4 µM (inactive) | 97.3 µM (inactive) | > 100 µM (inactive) | 92.9 µM (inactive) | 16.7 µM (inactive) | 19.1 µM (inactive) | 16.4 µM (inactive) | 10.6 µM (inactive) | 22.7 µM (inactive) | 23.4 µM (inactive) | > 100 µM (inactive) | > 100 µM (inactive) | 18 µM (inactive) | 18.6 µM (inactive) | 49.2 µM (inactive) | 3.92 µM (inactive) | 65.5 µM (inactive) | 15.7 µM (inactive) | > 100 µM (inactive) |
| COc1ccc(-c2nc(N3CCCC3)no2)cc1 | 25.9 µM (inactive) | 27.9 µM (inactive) | 88.5 µM (inactive) | > 100 µM (inactive) | > 100 µM (inactive) | 42.7 µM (inactive) | 54.6 µM (inactive) | 33 µM (inactive) | 39.1 µM (inactive) | 72.8 µM (inactive) | 34 µM (inactive) | > 86.7 µM (inactive) | 41.6 µM (inactive) | 22 µM (inactive) | 21.2 µM (inactive) | 53.6 µM (inactive) | 34.1 µM (inactive) | > 100 µM (inactive) | > 100 µM (inactive) | > 100 µM (inactive) |
| O=c1cc(-c2ccccc2)oc2c(-c3cc(Cl)cc4c(=O)cc(-c5ccccc5)oc34)cc(Cl)cc12 | 22.2 µM (inactive) | 31 µM (inactive) | 20 µM (inactive) | 26.5 µM (inactive) | 10.2 µM (inactive) | 21.5 µM (inactive) | 25 µM (inactive) | 22.6 µM (inactive) | 14.1 µM (inactive) | 24.3 µM (inactive) | 41.9 µM (inactive) | 37.9 µM (inactive) | 7.87 µM (inactive) | 26.2 µM (inactive) | 22.4 µM (inactive) | 15.5 µM (inactive) | 4.49 µM (inactive) | 19.9 µM (inactive) | 45 µM (inactive) |  |
| CNc1ccc(OC)cc1S(=O)(=O)c1ccccc1[N+](=O)[O-] | 47.1 µM (inactive) | > 100 µM (inactive) |  | > 100 µM (inactive) | 27 µM (inactive) | > 100 µM (inactive) | > 100 µM (inactive) | > 100 µM (inactive) | 92.3 µM (inactive) | > 100 µM (inactive) | > 100 µM (inactive) | > 100 µM (inactive) | 52.7 µM (inactive) | > 100 µM (inactive) | > 100 µM (inactive) | 51.3 µM (inactive) | > 100 µM (inactive) | > 100 µM (inactive) | > 100 µM (inactive) |  |
| CCNCC(=O)Nc1ccc2c(c1)C(=O)c1ccc(NC(=O)CNCC)cc1C2=O | 4.93 µM (inactive) | 5.75 µM (inactive) | 11.7 µM (inactive) | 2.27 µM (inactive) |  | 5.51 µM (inactive) | 3.43 µM (inactive) | 1.49 µM (inactive) | 1.87 µM (inactive) | 2.59 µM (inactive) | 0.514 µM (active) | 3.01 µM (inactive) | 2.76 µM (inactive) | 2.53 µM (inactive) | 3.33 µM (inactive) | 36.4 µM (inactive) | 1.41 µM (inactive) | 2.99 µM (inactive) | 5.22 µM (inactive) | 5.98 µM (inactive) |
